Among the data in PubChem BioAssay AID256 (DTP/NCI, 2004) are T/C values, retold here.

Several values for one entry are separate records, joined by “and”; a condition that tells them apart may be missing. Identical values can stand only once. Inconclusive results and toxic doses are left out.

The test system of this test is CD2F1 mice, L1210 leukemia ip, survival T/C. The experiment in a line: NCI In Vivo Anticancer Drug Screen. Data for tumor model L1210 Leukemia (intraperitoneal) in CD2F1 (CDF1) mice. To be noted: higher = longer survival. In a few lines: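 Tumor-bearing mice (transplanted tumor) were split into treated and vehicle control groups, and the measured endpoint of each treated group was divided by that of its vehicle controls.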

Where [1] appears, read: endpoint: mean survival time, dose: 100.0 mg/kg/injection, schedule: Q04DX003 (ip), vehicle: saline with Tween-80.
The mark [2] stands for this setting: endpoint: mean survival time, dose: 200.0 mg/kg/injection, schedule: Q04DX003 (ip), vehicle: saline with Tween-80.
Setting [3] is: endpoint: mean survival time, dose: 400.0 mg/kg/injection, schedule: Q04DX003 (ip), vehicle: saline with Tween-80.
The mark [4] stands for this setting: endpoint: mean survival time, dose: 50.0 mg/kg/injection, schedule: Q04DX002 (ip), vehicle: saline with Tween-80.
[5] abbreviates: endpoint: mean survival time, dose: 100.0 mg/kg/injection, schedule: Q04DX002 (ip), vehicle: saline with Tween-80.
Where [6] appears, read: endpoint: mean survival time, dose: 200.0 mg/kg/injection, schedule: Q04DX002 (ip), vehicle: saline with Tween-80.

With `O=C(O)c1cc(=O)c2ccccc2[nH]1`, the T/C is 93 % of control (endpoint: mean survival time, dose: 50.0 mg/kg/injection, schedule: Q01DX001 (ip), vehicle: saline); 93 % of control (endpoint: mean survival time, dose: 100.0 mg/kg/injection, schedule: Q01DX001 (ip), vehicle: saline); 91 % of control (endpoint: mean survival time, dose: 200.0 mg/kg/injection, schedule: Q01DX001 (ip), vehicle: saline).

With `N#CC(CC(=O)c1ccccc1)c1ccccc1` (configuration not stated), the T/C reads like this: under setting [1], 90 % of control; under setting [2], 102 % of control; under setting [3], 104 % of control.

Take `CN(C)N=Nc1c(F)cccc1F`: the T/C reads like this: (endpoint: mean survival time, dose: 6.25 mg/kg/injection, schedule: Q01DX009 (ip), vehicle: other) 98 % of control; (endpoint: mean survival time, dose: 12.5 mg/kg/injection, schedule: Q01DX009 (ip), vehicle: other) 113 % of control and 93 % of control; (endpoint: mean survival time, dose: 12.5 mg/kg/injection, schedule: Q01DX009 (ip), vehicle: saline with Tween-80) 98 % of control; (endpoint: mean survival time, dose: 25.0 mg/kg/injection, schedule: Q01DX009 (ip), vehicle: other) 117 % of control and 100 % of control; (endpoint: mean survival time, dose: 25.0 mg/kg/injection, schedule: Q01DX009 (ip), vehicle: saline with Tween-80) 106 % of control; (endpoint: mean survival time, dose: 50.0 mg/kg/injection, schedule: Q01DX009 (ip), vehicle: other) 91 % of control. For the same compound, the T/C (endpoint: mean survival time, dose: 50.0 mg/kg/injection, schedule: Q01DX009 (ip), vehicle: saline with Tween-80) was 120 % of control; the T/C (endpoint: mean survival time, dose: 100.0 mg/kg/injection, schedule: Q01DX009 (ip), vehicle: other) is 102 % of control and 104 % of control.

For `CCc1cccc(CC)c1NC(N)=S`, the T/C (endpoint: mean survival time, dose: 25.0 mg/kg/injection, schedule: Q04DX002 (ip), vehicle: saline with Tween-80) is 108 % of control; the T/C under setting [4] was 97 % of control; the T/C under setting [5] is 101 % of control.

Take `O=c1cc[nH]c2cc(Cl)ccc12`: the T/C by setting is: (endpoint: mean survival time, dose: 100.0 mg/kg/injection, schedule: Q04DX003 (ip), vehicle: alcohol) 89 % of control; (endpoint: mean survival time, dose: 200.0 mg/kg/injection, schedule: Q04DX003 (ip), vehicle: alcohol) 96 % of control.

With `O=C(c1ccccc1)N(C(=O)c1ccccc1)c1cccc(N(C(=O)c2ccccc2)C(=O)c2ccccc2)n1`, the T/C was 101 % of control under setting [4], 97 % of control under setting [5] and 93 % of control under setting [6].

Turning to `CC(N(N=O)c1cccc(Cl)c1)S(=O)(=O)O` (configuration not stated), the T/C was 101 % of control under setting [5]; 97 % of control under setting [6]; 86 % of control (endpoint: mean survival time, dose: 400.0 mg/kg/injection, schedule: Q04DX002 (ip), vehicle: saline with Tween-80).

As for `O=C(c1ccc2ccccc2c1O)N1CCCCC1`, the T/C was 101 % of control under setting [1], 103 % of control under setting [2] and 101 % of control under setting [3].

`CC(C)(C)C(=O)OCC1OC(n2ccc(O)cc2=O)C(O)C1O` (configuration not stated): the T/C reads like this: (endpoint: median survival time, dose: 67.0 mg/kg/injection, schedule: Q01DX009 (ip), vehicle: saline + Tween-80 + alcohol) 168 % of control; (endpoint: median survival time, dose: 100.0 mg/kg/injection, schedule: Q01DX009 (ip), vehicle: saline + Tween-80 + alcohol) 163 % of control; (endpoint: median survival time, dose: 150.0 mg/kg/injection, schedule: Q01DX009 (ip), vehicle: saline + Tween-80 + alcohol) 150 % of control; (endpoint: median survival time, dose: 225.0 mg/kg/injection, schedule: Q01DX009 (ip), vehicle: saline + Tween-80 + alcohol) 154 % of control.

As for `COc1ccc2c(c1)N(CC(C)C[N+](C)(C)CCCCCCCCCCCCCCCC[N+](C)(C)CC(C)CN1c3ccccc3Sc3ccc(OC)cc31)c1ccccc1S2` (configuration not stated), the T/C by setting is: (endpoint: mean survival time, dose: 100.0 mg/kg/injection, schedule: Q04DX003 (ip), vehicle: saline) 91 % of control; (endpoint: mean survival time, dose: 200.0 mg/kg/injection, schedule: Q04DX003 (ip), vehicle: saline) 91 % of control.

In the case of `CC(C)(C)c1ccc(O)c(C(=O)N/N=C/c2ccccc2O)c1`, the T/C reads like this: (endpoint: mean survival time, dose: 100.0 mg/kg/injection, schedule: Q01DX001 (ip), vehicle: saline with Tween-80) 97 % of control; (endpoint: mean survival time, dose: 200.0 mg/kg/injection, schedule: Q01DX001 (ip), vehicle: saline with Tween-80) 104 % of control; (endpoint: mean survival time, dose: 400.0 mg/kg/injection, schedule: Q01DX001 (ip), vehicle: saline with Tween-80) 93 % of control.

With `CO[C@]12[C@@H](COC(N)=O)C3=C(C(=O)C(C)=C(NCC4CCCO4)C3=O)N1C[C@@H]1[C@H]2N1C` (some centres not stated), the T/C by setting is: (endpoint: mean survival time, dose: 1.5 mg/kg/injection, schedule: Q01DX001 (ip), vehicle: saline with Tween-80) 102 % of control; (endpoint: mean survival time, dose: 3.0 mg/kg/injection, schedule: Q01DX001 (ip), vehicle: saline with Tween-80) 98 % of control; (endpoint: mean survival time, dose: 6.0 mg/kg/injection, schedule: Q01DX001 (ip), vehicle: saline with Tween-80) 104 % of control; (endpoint: mean survival time, dose: 12.0 mg/kg/injection, schedule: Q01DX001 (ip), vehicle: saline with Tween-80) 104 % of control; (endpoint: mean survival time, dose: 24.0 mg/kg/injection, schedule: Q01DX001 (ip), vehicle: distilled water + Tween-80) 114 % of control; (endpoint: mean survival time, dose: 24.0 mg/kg/injection, schedule: Q01DX001 (ip), vehicle: saline with Tween-80) 116 % of control. Also, the T/C reads like this: (endpoint: mean survival time, dose: 25.0 mg/kg/injection, schedule: Q01DX001 (ip), vehicle: distilled water + Tween-80) 121 % of control; (endpoint: mean survival time, dose: 48.0 mg/kg/injection, schedule: Q01DX001 (ip), vehicle: distilled water + Tween-80) 124 % of control; (endpoint: mean survival time, dose: 100.0 mg/kg/injection, schedule: Q01DX001 (ip), vehicle: distilled water + Tween-80) 113 % of control.

In the case of `CC(=O)OC1OC(=O)C(C)(C(C)=O)C1C` (configuration not stated), the T/C is, setting by setting: (endpoint: median survival time, dose: 2.5 mg/kg/injection, schedule: Q01DX009 (ip), vehicle: distilled water + alcohol) 103 % of control; (endpoint: median survival time, dose: 5.0 mg/kg/injection, schedule: Q01DX009 (ip), vehicle: distilled water + alcohol) 101 % of control; (endpoint: median survival time, dose: 10.0 mg/kg/injection, schedule: Q01DX009 (ip), vehicle: distilled water + alcohol) 104 % of control; (endpoint: median survival time, dose: 20.0 mg/kg/injection, schedule: Q01DX009 (ip), vehicle: distilled water + alcohol) 103 % of control.

On to `CC1CN(c2ccccc2)NC1=O` (configuration not stated), for which the T/C runs as follows: (endpoint: mean survival time, dose: 100.0 mg/kg/injection, schedule: Q01DX009 (ip), vehicle: saline) 104 % of control; (endpoint: mean survival time, dose: 200.0 mg/kg/injection, schedule: Q01DX009 (ip), vehicle: saline) 105 % of control; (endpoint: mean survival time, dose: 400.0 mg/kg/injection, schedule: Q01DX009 (ip), vehicle: saline) 102 % of control.

`COc1ccc(/C=C\[N+](=O)[O-])cc1OC`: the T/C reads like this: (endpoint: mean survival time, dose: 100.0 mg/kg/injection, schedule: Q04DX003 (ip), vehicle: Klucel (hydroxypropylcellulose) (HPC)) 101 % of control; (endpoint: mean survival time, dose: 200.0 mg/kg/injection, schedule: Q04DX003 (ip), vehicle: Klucel (hydroxypropylcellulose) (HPC)) 104 % of control; (endpoint: mean survival time, dose: 400.0 mg/kg/injection, schedule: Q04DX003 (ip), vehicle: Klucel (hydroxypropylcellulose) (HPC)) 101 % of control.

For the compound `COC(=O)C1C2CC3c4[nH]c5cc(OC)c(Br)cc5c4CCN3CC2CC(OC(=O)c2cc(OC)c(OC)c(OC)c2)C1OC` (configuration not stated), the T/C by setting is: (endpoint: mean survival time, dose: 75.0 mg/kg/injection, schedule: Q01DX001 (ip), vehicle: saline) 92 % of control; (endpoint: mean survival time, dose: 150.0 mg/kg/injection, schedule: Q01DX001 (ip), vehicle: saline) 103 % of control; (endpoint: mean survival time, dose: 300.0 mg/kg/injection, schedule: Q01DX001 (ip), vehicle: saline) 105 % of control.

On to `Cc1cc(C)c(C(=O)C2Oc3ccccc3C2c2ccccc2)c(C)c1` (configuration not stated), for which the T/C was 95 % of control (endpoint: mean survival time, dose: 100.0 mg/kg/injection, schedule: Q01DX009 (ip), vehicle: saline with Tween-80); 100 % of control under setting [1]; 97 % of control (endpoint: mean survival time, dose: 200.0 mg/kg/injection, schedule: Q01DX009 (ip), vehicle: saline with Tween-80); 102 % of control under setting [2]; 91 % of control (endpoint: mean survival time, dose: 400.0 mg/kg/injection, schedule: Q01DX009 (ip), vehicle: saline with Tween-80); 100 % of control under setting [3].

As to `CC(=O)C1=C(O)C(Cc2ccccc2)NC1=O` (configuration not stated), the T/C (endpoint: mean survival time, dose: 100.0 mg/kg/injection, schedule: Q01DX001 (ip), vehicle: Klucel (hydroxypropylcellulose) (HPC)) is 98 % of control; the T/C (endpoint: mean survival time, dose: 200.0 mg/kg/injection, schedule: Q01DX001 (ip), vehicle: Klucel (hydroxypropylcellulose) (HPC)) is 102 % of control; the T/C (endpoint: mean survival time, dose: 400.0 mg/kg/injection, schedule: Q01DX001 (ip), vehicle: Klucel (hydroxypropylcellulose) (HPC)) is 102 % of control.

Take `O=[N+]([O-])c1ccc(S/C=C/c2ccccc2)cc1`: the T/C runs as follows: (endpoint: median survival time, dose: 25.0 mg/kg/injection, schedule: Q04DX002 (ip), vehicle: saline with Tween-80) 100 % of control; (endpoint: median survival time, dose: 50.0 mg/kg/injection, schedule: Q04DX002 (ip), vehicle: saline with Tween-80) 110 % of control; (endpoint: median survival time, dose: 100.0 mg/kg/injection, schedule: Q04DX002 (ip), vehicle: saline with Tween-80) 100 % of control; (endpoint: median survival time, dose: 200.0 mg/kg/injection, schedule: Q04DX002 (ip), vehicle: saline with Tween-80) 100 % of control.
